Test system: Plasmopara viticola
Experiment: 7-day preventive activity on Plasmopara viticola on vines, preventive leaf application (greenhouse test)
Assay type: in vivo
Design: key to Activity (y): scale 100 = healthy plant to 0 = completely infected plant
Procedure: Efficacy of the mixtures of one or more compounds belonging to the FOS and SIN groups of compounds in the control of Plasmopara viticola on vines in preventive leaf application (greenhouse test) (Table 1-Table 3) and of the compositions of said mixtures with a further fungicidal component (Table 4).
Leaves of cultivar Merlot vines, grown in vases, in a conditioned environment (20±1° C., 70% relative humidity) are treated by spraying both sides of the leaves with the mixtures under examination dispersed in an aqueous solution containing a 0.3% of tween 20.
After remaining 7 days in a conditioned environment, the plants are infected on the lower side with an aqueous suspension of spores of Plasmopara viticola (200,000 spores per cm^3).
The plants are kept in a humidity saturated environment, at 21° C., for the incubation period of the fungus and, at the end of this period (7 days), the fungicidal activity is evaluated according to an evaluation percentage scale from 100 (healthy plant) to 0 (completely infected plant).
When the fungicidal activity found experimentally is greater than the value of E, this activity is considered a synergistic effect.

[1] = Table 4, alone, 32 ppm of equivalent metal copper
[2] = Table 4, alone, 125 ppm of equivalent phosphorous acid
[3] = compound alone, 250 ppm of equivalent phosphorous acid, scale 100 (healthy plant) to 0 (completely infected plant)

Compound: CC(=O)Oc1ccccc1C(=O)[O-].CC(=O)Oc1ccccc1C(=O)[O-].[Cu+2] [Cu(ASA)2]
- % activity of each single compound [1]: Cu(ASA)2: 32 ppm*** (45) %

Compound: [Cu+2].c1ccc2c(c1)-c1nc-2nc2[n-]c(nc3nc(nc4[n-]c(n1)c1ccccc41)-c1ccccc1-3)c1ccccc21 [Cu(II) phthalocyanine, copper phthalocyanine]
- Activity (y) (SIN compound alone, 32 ppm of equivalent metal): 10
- % activity of each single compound [1]: (8) %

Compound: O=C(O)c1ccccc1[O-].O=C(O)c1ccccc1[O-].[Cu+2] [Cu(SA)]
- % activity of each single compound [1]: Cu(SA): 32 ppm*** (42) %

Compound: O=[PH]([O-])[O-].[Cu+2] [CuHPO3, copper (II) salt of phosphorous acid]
- % activity of each single compound (Table 3, alone, 250 ppm of equivalent phosphorous acid): CuHPO3: 250 ppm** (55) %
- % activity of each single compound [2]: CuHPO3: 125 ppm** (32) %
- Activity (y) [3]: 55

Compound: O=c1ccc2cc(O[C@@H]3O[C@H](CO)[C@@H](O)[C@H](O)[C@H]3O)c(O)cc2o1 [Esculin, esculin]
- Activity (y) (SIN compound alone, 25 ppm): 10

Compound: COC(=O)CC(NC(=O)[C@@H](NC(=O)OC(C)C)C(C)C)c1ccc(Cl)cc1 (stereo partly drawn) [IR5885, methyl [S—(R,S)]-[3-(N-isopropoxycarbonylvalinyl)-amino]-3-(4-chlorophenyl)propanoate]
- % activity of each single compound (Table 4, alone, 0.45 ppm): IR5885: 0.45 ppm (41) %

Compound: COC(=O)[C@@H](C)N(C(=O)Cc1ccccc1)c1c(C)cccc1C [IR6141, methyl N-(phenylacetyl)-N-2,6-xylyl-R-alaninate]
- inhibition at 5 ppm (Plasmopara viticola, Table 4, alone, 5 ppm, read-out: % activity of each single compound): 45%

Compound: [C-]#N.[C-]#N.[C-]#N.[C-]#N.[C-]#N.[C-]#N.[C-]#N.[C-]#N.[C-]#N.[C-]#N.[C-]#N.[C-]#N.[C-]#N.[C-]#N.[C-]#N.[C-]#N.[C-]#N.[C-]#N.[Fe+2].[Fe+2].[Fe+2].[Fe+3].[Fe+3].[Fe+3].[Fe+3] [Prussian blue]
- Activity (y) (SIN compound alone, 250 ppm): 32
- % activity of each single compound (Table 3, alone, 125 ppm): Prussian blue: 125 ppm (5) %
- % activity of each single compound (Table 4, alone, 125 ppm): Prussian blue: 125 ppm (5) %

Compound: O=[PH]([O-])[O-].[Zn+2] [ZnHPO3, zinc salt of phosphorous acid]
- % activity of each single compound [2]: ZnHPO3: 125 ppm** (18) %
- Activity (y) [3]: 35

Compound: [O]=[Zn] [ZnO, zinc oxide]
- Activity (y) (SIN compound alone, 250 ppm): 30
- % activity of each single compound (Table 3, alone, 125 ppm): ZnO: 125 ppm (14) %
- % activity of each single compound (Table 4, alone, 125 ppm): ZnO: 125 ppm (14) %

Compound: silicic acid
- Activity (y) (SIN compound alone, 14 ppm of equivalent metal): 14

Compound: titanium dioxide [TiO2]
- Activity (y) (SIN compound alone, 250 ppm): 13
- % activity of each single compound (Table 3, alone, 125 ppm): TiO2: 125 ppm (3) %
- % activity of each single compound (Table 4, alone, 125 ppm): TiO2: 125 ppm (3) %

From patent US20100197495A1, “Synergistic Mixtures and/or Compositions With a High Fungicidal Activity” (priority 2005, published 2010)
